Test results published in patent US20160257957A1, “METHODS AND COMPOSITIONS FOR TREATMENT OF ANGELMAN SYNDROME AND AUTISM SPECTRUM DISORDERS” (PRESIDENT AND FELLOWS OF HARVARD COLLEGE, priority 2010, published 2016).
Where a SMILES comes first, the peptide text is derived from it. The star is where a group is joined. Cbz = O=C(OCc1ccccc1)*

How the values were obtained:
[1] = tested on: muscarinic acetylcholine receptors (mAChR); settings: literature; cited from earlier work
[2] = target: T1, mGluR5 (Mus musculus, UniProt Q3UVX5); settings: mouse model of FXS, injection; cited from earlier work
T1 construct: host or cells: mouse model of Fragile X syndrome (in vivo)

[3] = tested on: Ube3A-mediated degradation of Arc; assay: Ube3A-mediated degradation of Arc in transfected HEK293T cells (Western blot); format: cell-based; settings: HEK293T cells transfected with Arc and Ube3A; MG132 10 μM
Description: (FIG. 9A) Western blot analysis of protein lysates made from brains of wild type and Ube3A knockout mice two hours following kainate acid injection. Immunoprecipitations were performed with an anti-Ube3A antibody and blotted with an anti-Arc antibody to reveal co-immunoprecipitated Arc. Images presented are representative of experiments performed on four independent sets of wildtype and Ube3A knockout mice. (FIG. 9B) Protein lysates were prepared from HEK293T cells transfected with Myc-Arc and HA-tagged ubiquitin and the indicated constructs and then treated with either vehicle control or the proteasome inhibitor MG132 ([…]). Arc was then immunoprecipitated using the anti-Myc antibody 9E10, and Western blot analysis was performed using an anti-Arc antibody to reveal both non-ubiquitinated and ubiquitinated forms of Arc. (FIG. 9C) Mass spectrometric peaks reveal that Ube3A catalyzes the ubiquitination of Arc on lysine 269. […] SEQ ID NO:5 is KGGEFLQYSEGTLSR(SEQ ID NO: 5) shown. Note the presence of two glycine residues covalently linked to the first lysine of this peptide which is indicative of ubiquitin being attached to that specific residue. […] Additional data not pictured here reveal the presence of ubiquitinated lysine 268 as well. […] SEQ ID NO: 6 is LIFAGKGGQLEDGR (SEQ ID NO: 6) shown in upper panel of FIG. 9D. […]

[4] = tested on: Ube3A; assay: Kainate-induced seizures: Ube3A mRNA and protein in mouse hippocampus; format: in vivo, mice; settings: kainate-induced seizures vs control
Source text: FIGS. 8A-8G show regulation of Ube3A mRNA and protein by neuronal activity. (FIG. 8A) Real-time PCR analysis of Ube3A mRNA extracted from hippocampal neurons at E18+10 DIV treated for six hours with the indicated agent. Data are means+/−SEM from three independent experiments. * indicates statistical significance in pairwise comparison to control: P<0.01 T-test. (FIG. 8B) Quantitative Western blot analysis of Ube3A protein. Protein lysates were collected from hippocampal neurons at E18+8 DIV following treatment with the indicated agent for seven hours. This experiment was performed three times independently and the data were normalized to the control and are presented as means+/−SEM. * indicates P<0.01, # indicates P<0.05 in analysis of statistical significance in pairwise comparison to control by T-test. (FIG. 8C) Quantitative Western blot analysis of Ube3A protein. […] (FIG. 8E) Quantitative Western blot analysis of Ube3A protein from mice 2.5 hours after injection with saline (ctl) or kainic acid (seized) to induce seizures. […] (FIG. 8F) Quantitative Western blot analysis of Ube3A protein from mice housed in standard laboratory cages (control) or placed in cages with novel objects (enriched) for 2.5 hours. […]
Quantitative Real-Time PCR was carried out following standard procedures. […]

[5] = tested on: Arc; settings: literature; cited from earlier work

T1 sequence (Q3UVX5 19-1203): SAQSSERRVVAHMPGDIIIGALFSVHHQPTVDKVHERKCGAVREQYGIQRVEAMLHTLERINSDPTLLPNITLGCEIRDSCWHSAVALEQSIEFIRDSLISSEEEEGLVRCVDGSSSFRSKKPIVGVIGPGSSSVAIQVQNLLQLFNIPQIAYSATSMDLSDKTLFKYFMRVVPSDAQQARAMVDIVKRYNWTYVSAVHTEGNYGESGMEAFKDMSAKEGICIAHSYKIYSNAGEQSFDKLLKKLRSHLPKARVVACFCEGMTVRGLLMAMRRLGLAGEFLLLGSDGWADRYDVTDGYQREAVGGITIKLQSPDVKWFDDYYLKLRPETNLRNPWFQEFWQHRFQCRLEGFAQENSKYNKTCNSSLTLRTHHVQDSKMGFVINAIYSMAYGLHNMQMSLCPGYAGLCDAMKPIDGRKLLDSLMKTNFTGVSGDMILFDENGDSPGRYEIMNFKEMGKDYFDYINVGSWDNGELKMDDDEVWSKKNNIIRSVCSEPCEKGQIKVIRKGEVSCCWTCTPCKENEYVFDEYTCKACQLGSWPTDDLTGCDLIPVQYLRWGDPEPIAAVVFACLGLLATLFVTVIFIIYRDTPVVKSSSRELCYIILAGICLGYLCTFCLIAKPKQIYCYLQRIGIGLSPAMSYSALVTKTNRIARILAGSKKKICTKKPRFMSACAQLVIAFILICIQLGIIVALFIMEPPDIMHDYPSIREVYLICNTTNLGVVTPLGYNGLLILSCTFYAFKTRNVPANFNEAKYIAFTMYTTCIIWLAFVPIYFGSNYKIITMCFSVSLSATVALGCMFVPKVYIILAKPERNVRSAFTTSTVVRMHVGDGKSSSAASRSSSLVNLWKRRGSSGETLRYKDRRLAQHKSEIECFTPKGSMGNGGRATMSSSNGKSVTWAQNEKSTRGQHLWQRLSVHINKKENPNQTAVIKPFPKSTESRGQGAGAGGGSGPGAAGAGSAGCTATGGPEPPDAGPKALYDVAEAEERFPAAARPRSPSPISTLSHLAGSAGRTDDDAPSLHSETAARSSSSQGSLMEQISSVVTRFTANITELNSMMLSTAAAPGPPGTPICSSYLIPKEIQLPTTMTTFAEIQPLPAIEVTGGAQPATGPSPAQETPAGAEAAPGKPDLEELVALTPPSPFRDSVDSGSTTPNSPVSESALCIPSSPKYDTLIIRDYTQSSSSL

For `CN1[C@@H]2CC[C@H]1C[C@@H](OC(=O)C(CO)c1ccccc1)C2` (stereo partly drawn) [atropine], the “mAChR-induced expression of ARC” value [1] is given as “can be inhibited”.

In the case of `Cc1cccc(C#Cc2ccccc2)n1` [MPEP, 2-methyl-6-(phenylethynyl)-pyridine], the “surface expression of AMPARs” value [2] is listed as “restored surface expression of AMPARs” and the “symptoms associated with FXS” value [2] is listed as “prevented the symptoms associated with FXS”.

With `CC(C)C[C@@H](C=O)NC(=O)[C@H](CC(C)C)NC(=O)[C@H](CC(C)C)NC(=O)OCc1ccccc1` [MG132] (Cbz-Leu-Leu-Leu-aldehyde) the “Ube3A-mediated degradation of Arc” value [3] was “blocked Ube3A-mediated degradation of Arc”.

For `C=C(C)[C@H]1CN[C@H](C(=O)O)[C@H]1CC(=O)O` [kainate, kainic acid], the “Ube3A mRNA level” value ([4]; mouse hippocampus) was “increased” and the Ube3A protein level ([4]; mouse) was “increased”.

For `C[C@@H](CO)CCC[C@@H](C)[C@H]1CC[C@H]2[C@@H]3CC=C4C[C@@H](O)CC[C@]4(C)[C@H]3CC[C@]12C` [27-hydroxycholesterol], the ARC expression [5] is given as “specifically decreased”.

In the case of insulin: insulin, the ARC expression [5] is given as “increased”.

For `O=S(=O)(NCCNC/C=C/c1ccc(Br)cc1)c1cccc2cnccc12` [H89], the ARC expression [5] is given as “induction of ARC expression”.
